# Laboratory results taken from patent US20110306597A1, “Nicotinamide Derivatives” (priority 2008, published 2011).
# Biological target: human recombinant H-PGDS (Homo sapiens, UniProt O60760)
# Experiment: Fluorescence Intensity h-PGDS TBA Enzyme Assay
# Assay type: biochemical
# Conditions: 1:175,000 human recombinant H-PGDS, highest inhibitor concentration typically 1 μM
# In short: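 Readout is PGH2 depletion: after a 42 s reaction with 5.0 μM PGH2 and 2.5 mM glutathione (pH 8.0 Tris, 10 min inhibitor preincubation), Fe(II) converts leftover PGH2 to MDA, which forms a fluorescent TBA complex. IC50s come from 11-point, 3-fold duplicate curves, 4-parameter fit.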
# Chain of human recombinant H-PGDS (O60760 whole entry): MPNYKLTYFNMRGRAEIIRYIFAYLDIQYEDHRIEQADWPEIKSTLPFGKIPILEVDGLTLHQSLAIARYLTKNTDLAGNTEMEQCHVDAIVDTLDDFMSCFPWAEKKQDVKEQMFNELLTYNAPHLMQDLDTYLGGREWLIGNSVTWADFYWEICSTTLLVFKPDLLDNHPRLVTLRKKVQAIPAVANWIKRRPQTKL
row,Compound,IC50
1,"Cc1cc(-c2cnc(C(C)(C)C)nc2CNC(=O)c2ccc(-c3cccc(F)c3)nc2)on1 [Example 122, N-{[2-tert-Butyl-5-(3-methylisoxazol-5-yl)pyrimidin-4-yl]methyl}-6-(3-fluorophenyl)nicotinamide]",> 1000 nM
2,"COc1cccc(-c2ccc(C(=O)NCCN(C)C)cn2)c1 [Example 285, N-[2-(Dimethylamino)ethyl]-6-(3-methoxyphenyl) nicotinamide]",≥ 1000 nM
3,"Cc1cccc(-c2ccc(C(=O)NCc3ccc(Br)cc3)cn2)c1 [Example 489, N-(4-Bromobenzyl)-6-(3-methylphenyl)nicotinamide]",214 nM
4,"COc1cc(F)cc(-c2ccc(C(=O)NCCC3CCCCO3)cn2)c1 (stereo not shown) [Example 560, 6-(3-Fluoro-5-methoxyphenyl)-N-[2-(tetrahydro-2H-pyran-2-yl)ethyl]nicotinamide]",129 nM
5,"COC(=O)[C@H](C)NC(=O)c1ccc(-c2cccc(OC)c2)nc1 [Example 340, Methyl N-{[6-(3-methoxyphenyl)pyridin-3-yl]carbonyl}alaninate]",≥ 1000 nM
6,"COCCCn1cnnc1CNC(=O)c1ccc(-c2cccc(F)c2)nc1 [Example 17, 6-(3-Fluorophenyl)-N-{[4-(3-methoxypropyl)-4H-1,2,4-triazol-3-yl]methyl}nicotinamide]",112 nM
7,"CC(C)N1CCC(CNC(=O)c2ccc(-c3cccc(F)c3)nc2)CC1 [Example 117, 6-(3-Fluorophenyl)-N-[(1-isopropylpiperidin-4-yl)methyl]nicotinamide]",108 nM
8,"CN1CCN(CC(CNC(=O)c2ccc(-c3cccc(F)c3)nc2)c2ccccc2)CC1 (stereo not shown) [Example 103, 6-(3-Fluorophenyl)-N-[3-(4-methylpiperazin-1-yl)-2-phenylpropyl]nicotinamide]",316 nM
9,"COc1cccc(-c2ccc(C(=O)Nc3ccncc3)cn2)c1 [Example 336, 6-(3-Methoxyphenyl)-N-pyridin-4-ylnicotinamide]",87.3 nM
10,"O=C(CNC(=O)c1ccc(-c2ccc(F)cc2)nc1)OCc1ccccc1 [Example 464, Benzyl N-{[6-(4-fluorophenyl)pyridin-3-yl]carbonyl}glycinate]",≥ 1000 nM
11,"Cc1cccc(-c2ccc(C(=O)NCc3nc(CS(C)(=O)=O)no3)cn2)c1 [Example 222, 6-(3-Methylphenyl)-N-({3-[(methylsulfonyl)methyl]-1,2,4-oxadiazol-5-yl}methyl)nicotinamide]",351 nM
12,"COC(=O)CNC(=O)[C@H](C)NC(=O)c1ccc(-c2cccc(OC)c2)nc1 [Example 309, Methyl N-{[6-(3-methoxyphenyl)pyridin-3-yl]carbonyl}-L-alanylglycinate]",557 nM
13,"O=C(Nc1cccnc1)c1ccc(-c2ccc(F)cc2)nc1 [Example 328, 6-(4-Fluorophenyl)-N-pyridin-3-ylnicotinamide]",92 nM
14,"CCOC(=O)CC(NC(=O)c1ccc(-c2cccc(F)c2)nc1)c1ccccc1Cl (stereo not shown) [Example 411, Ethyl 3-(2-chlorophenyl)-3-({[6-(3-fluorophenyl)pyridin-3-yl]carbonyl}amino)propanoate]",127 nM
15,"COc1cccc(-c2ccc(C(=O)NCC(C)(C)CN(C)C)cn2)c1 [Example 342, N-[3-(Dimethylamino)-2,2-dimethylpropyl]-6-(3-methoxyphenyl)nicotinamide]",≥ 1000 nM
16,"COCCn1cnnc1CNC(=O)c1ccc(-c2cccc(F)c2)nc1 [Example 23, 6-(3-Fluorophenyl)-N-{[4-(2-methoxyethyl)-4H-1,2,4-triazol-3-yl]methyl}nicotinamide]",106 nM

# Now those with a lower IC50, led by results:
row,IC50,Compound
1,4.1 nM,"O=C(NCCCNc1ccccn1)c1ccc(-c2ccccc2)nc1 [Example 395, 6-Phenyl-N-[3-(pyridin-2-ylamino)propyl]nicotinamide]"
2,5.15 nM,"Cc1cc(C)c(C#N)c(N2C[C@H](NC(=O)c3ccc(-c4cccc(F)c4)nc3)[C@@H](O)C2)n1 [Example 563, N-[(3S,4S)-1-(3-Cyano-4,6-dimethylpyridin-2-yl)-4-hydroxypyrrolidin-3-yl]-6-(3-fluorophenyl)nicotinamide]"
3,41 nM,"O=C(CC(NC(=O)c1ccc(-c2cccc(F)c2)nc1)C1CC1)NCC1CC1 (stereo not shown) [Example 30, N-{1-Cyclopropyl-3-[(cyclopropylmethyl)amino]-3-oxopropyl}-6-(3-fluorophenyl)nicotinamide]"
4,4.3 nM,"O=C(NCc1ccccc1)c1ccc(-c2ccccc2)nc1 [Example 347, N-Benzyl-6-phenylnicotinamide]"
5,26.1 nM,"CC(C)CNC(=O)c1ccc(-c2cccc(F)c2)nc1 [Example 170, 6-(3-Fluorophenyl)-N-isobutylnicotinamide]"
6,11.7 nM,"O=C(NCCc1cccs1)c1ccc(-c2cccc(F)c2)nc1 [Example 430, 6-(3-Fluorophenyl)-N-[2-(2-thienyl)ethyl]nicotinamide]"
7,18.7 nM,"Cc1ccn(CCNC(=O)c2ccc(-c3cccc(F)c3)nc2)n1 [Example 92, 6-(3-Fluorophenyl)-N-[2-(3-methyl-1H-pyrazol-1-yl)ethyl]nicotinamide]"
8,31.1 nM,"CCOC(=O)CC(NC(=O)c1ccc(-c2ccccc2)nc1)c1ccc(Cl)cc1 (stereo not shown) [Example 401, Ethyl 3-(4-chlorophenyl)-3-{[(6-phenylpyridin-3-yl)carbonyl]amino}propanoate]"
9,67.3 nM,"O=C(NC1C(=O)NCCc2ccccc21)c1ccc(-c2cccc(F)c2)nc1 (stereo not shown) [Example 120, 6-(3-Fluorophenyl)-N-(2-oxo-2,3,4,5-tetrahydro-1H-3-benzazepin-1-yl)nicotinamide]"
10,32.9 nM,"COC(=O)CC(NC(=O)c1ccc(-c2ccccc2)nc1)c1cccnc1 (stereo not shown) [Example 370, Methyl 3-{[(6-phenylpyridin-3-yl)carbonyl]amino}-3-pyridin-3-ylpropanoate]"
11,45.2 nM,"COc1ccc2nc(CNC(=O)c3ccc(-c4cccc(F)c4)nc3)[nH]c2c1 [Example 441, 6-(3-Fluorophenyl)-N-[(6-methoxy-1H-benzimidazol-2-yl)methyl]nicotinamide]"
12,4.07 nM,"O=C(NCc1cccc(F)c1)c1ccc(-c2ccccc2)nc1 [Example 346, N-(3-Fluorobenzyl)-6-phenylnicotinamide]"
13,43.5 nM,"O=C(NCCN1CCOCC1)c1ccc(-c2cccc(F)c2)nc1 [Example 169, 6-(3-Fluorophenyl)-N-(2-morpholin-4-ylethyl)nicotinamide]"
14,1.96 nM,"CCOC(=O)C(CNC(=O)c1ccc(-c2ccccc2)nc1)C1CCCC1 (stereo not shown) [Example 393, Ethyl 2-cyclopentyl-3-{[(6-phenylpyridin-3-yl)carbonyl]amino}propanoate]"
15,3.03 nM,"Cc1ccc2c(c1)C(NC(=O)c1ccc(-c3cccc(F)c3)nc1)CC(C)(C)O2 (stereo not shown) [Example 530, 6-(3-Fluorophenyl)-N-(2,2,6-trimethyl-3,4-dihydro-2H-chromen-4-yl)nicotinamide]"
16,10.3 nM,"Cc1cccc(NC(=O)c2ccc(-c3ccccc3)nc2)c1C [Example 527, N-(2,3-Dimethylphenyl)-6-phenylnicotinamide]"
17,27.7 nM,"COCc1cc(CNC(=O)c2ccc(-c3cccc(F)c3)nc2)n[nH]1 [Example 36, 6-(3-Fluorophenyl)-N-{[5-(methoxymethyl)-1H-pyrazol-3-yl]methyl}nicotinamide]"
18,32 nM,"O=C(NCC1(O)CCCC1)c1ccc(-c2cccc(F)c2)nc1 [Example 140, 6-(3-Fluorophenyl)-N-[(1-hydroxycyclopentyl)methyl] nicotinamide]"
19,47.3 nM,"CC(C)(CO)CNC(=O)c1ccc(-c2cccc(F)c2)nc1 [Example 447, 6-(3-Fluorophenyl)-N-(3-hydroxy-2,2-dimethylpropyl) nicotinamide]"
20,17.5 nM,"CSc1ccc(CNC(=O)c2ccc(-c3ccccc3)nc2)cc1 [Example 518, N-[4-(Methylthio)benzyl]-6-phenylnicotinamide]"
21,39 nM,"O=C(NCC1(O)CCSCC1)c1ccc(-c2cccc(F)c2)nc1 [Example 139, 6-(3-Fluorophenyl)-N-[(4-hydroxytetrahydro-2H-thiopyran-4-yl)methyl]nicotinamide]"
22,14.9 nM,"O=C(NCc1ccccc1)c1ccc(-c2cccc(F)c2)nc1 [Example 432, N-Benzyl-6-(3-fluorophenyl)nicotinamide]"
23,19.4 nM,"Cc1cccc(-c2ccc(C(=O)NCc3ccccc3)cn2)c1 [Example 310, N-Benzyl-6-(3-methylphenyl)nicotinamide]"
24,19.6 nM,"CCOC(=O)CC(NC(=O)c1ccc(-c2cccc(F)c2)nc1)c1ccc(OC)cc1 (stereo not shown) [Example 162, Ethyl 3-({[6-(3-fluorophenyl)pyridin-3-yl]carbonyl}amino)-3-(4-methoxyphenyl)propanoate]"
